Experimental findings from ChEMBL document CHEMBL1147258, “Cytochalasins Z4, Z5, and Z6, three new 24-Oxa[14]cytochalasans produced by Phoma exigua var. heteromorpha” (J Nat Prod, 2003) are described below.

The test system of data set [1] is Artemia. In words: (§1) Toxicity in brine shrimp assessed as mortality of larvae at 100 uM. Conditions: in vivo, 100 µM. Type of data set: organism-based.
Data set [2] concerns Solanum lycopersicum. In words: Herbicidal activity against tomato seedlings assessed as inhibition of rootlet elongation at 100 uM. Type of data set: functional.
Data set [3] in a line: as §1. Type of data set: organism-based. Conditions: artemia, in vivo; read-out: Activity.

Activity calls are given as the source filed them. The calls are words filed in the database; no cut-off is given here.

Regarding `C=C1[C@@H](C)[C@H]2[C@H](Cc3ccccc3O)NC(=O)[C@]23OC(=O)/C=C/[C@H](O)CCC[C@@H](C)C/C=C/[C@H]3[C@@H]1O` [CYTOCHALASIN Z4], the Activity entry in data set [1] is listed as “Non-toxic”. Moreover, the result in data set [2] was inactive.

For `C=C1[C@@H](C)[C@H]2[C@H](Cc3ccc(O)cc3)NC(=O)[C@]23OC(=O)/C=C/[C@H](O)CCC[C@@H](C)C/C=C/[C@H]3[C@@H]1O` [CYTOCHALASIN Z5], the mortality at 100 µM in data set [3] is 21%. Also, in data set [2], the outcome was inactive.

For orientation: inhibition means the change of the read-out against control, counted positive when it falls. Take `C[C@H]1C/C=C/[C@H]2[C@@H]3O[C@]3(C)[C@@H](C)[C@H]3[C@H](Cc4ccccc4)NC(=O)[C@]32OC(=O)/C=C/CC(O)CC1` (stereo partly specified) [CYTOCHALASIN Z6]: the Activity result in data set [1] is “Non-toxic”. In data set [2], the inhibition at 100 µM amounted to 30%.
